According to patent publication US6350749B1, “Aminoguanidine hydrazone derivatives, process for producing the same and drugs thereof” (Takeda Chemical Industries, Ltd., priority 1998, dated 2002):

Columns and labels:
Na—H exchange = molecular target: T1, Na—H exchange (Rattus norvegicus, UniProt P26431); test: Rat platelet swelling in sodium propionate solution (light transmittance of PRP), inhibition of Na—H exchange; format: cell-based; details: 1 min, test compound 10^−7 M; rat platelet rich plasma; value 1 minute after sodium propionate solution; 100% = difference between 1% DMSO and HOE-642 (10^−5M); read-out: Inhibition Rate (%) [10^−7 M]
T1 construct: The blood was centrifuged at 3000 rpm for 5 seconds to obtain platelet rich plasma (PRP); from tissue; host or cells: platelets in platelet rich plasma from abdominal aortic blood of male Wistar rats
T1 sequence (P26431 whole entry): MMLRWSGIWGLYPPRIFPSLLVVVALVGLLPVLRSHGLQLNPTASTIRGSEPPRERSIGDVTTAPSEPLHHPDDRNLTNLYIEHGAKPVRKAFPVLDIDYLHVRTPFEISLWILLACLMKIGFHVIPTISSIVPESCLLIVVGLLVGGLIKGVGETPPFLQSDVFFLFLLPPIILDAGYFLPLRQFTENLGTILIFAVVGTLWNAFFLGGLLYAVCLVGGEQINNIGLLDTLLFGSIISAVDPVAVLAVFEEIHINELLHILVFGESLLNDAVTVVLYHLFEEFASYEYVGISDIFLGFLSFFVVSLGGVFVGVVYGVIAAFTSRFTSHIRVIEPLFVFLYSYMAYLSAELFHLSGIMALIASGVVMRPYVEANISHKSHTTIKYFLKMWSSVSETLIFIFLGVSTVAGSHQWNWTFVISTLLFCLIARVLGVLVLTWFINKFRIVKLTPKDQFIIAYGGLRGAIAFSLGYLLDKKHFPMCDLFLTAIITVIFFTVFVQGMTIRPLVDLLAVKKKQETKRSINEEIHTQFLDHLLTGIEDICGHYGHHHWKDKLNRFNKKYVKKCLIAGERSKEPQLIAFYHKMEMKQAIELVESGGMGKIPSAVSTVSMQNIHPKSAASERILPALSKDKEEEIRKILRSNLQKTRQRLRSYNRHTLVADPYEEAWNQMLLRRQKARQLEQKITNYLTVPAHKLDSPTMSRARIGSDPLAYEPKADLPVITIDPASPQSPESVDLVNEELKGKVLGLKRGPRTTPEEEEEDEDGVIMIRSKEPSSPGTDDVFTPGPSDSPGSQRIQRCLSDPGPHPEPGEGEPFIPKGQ
Description: Male Wistar rats (350-450 g) were anesthetized with sodium pentobarbital (50 mg/kg, i.p.). Using a disposable syringe pre-filled with 1.5 ml of 3.8% citric acid solution, 8.5 ml of blood was collected from the abdominal aorta. The blood was centrifuged at 3000 rpm for 5 seconds to obtain platelet rich plasma (PRP). The number of platelets in the PRP was counted by an automatic hemocytometer (Sysmex 2500, TOA Medical Electronics). The PRP was diluted with physiological saline to make the concentration of 40×10^4 platelets per 1 μl. A platelet aggregometer (Hematoracer, Niko Bioscience) was used for measurement of the platelet swelling. 200 μl of the PRP was poured into a cuvette and 600 μl of sodium propionate solution (Na propionate 135, glucose 10, Hepes 20, CaCl2 1, MgCl2 1; Units: mM; pH6.7) was added while stirring at 37° C. The change in the light transmittance of PRP which was an indicator of the platelet swelling was recorded on a plotter. The test compound was added 3 minutes before addition of the sodium propionate solution. The test compounds were dissolved in dimethylsulfoxide (DMSO).

For `Cc1n[nH]c2c1C(=NNC(=N)NO)CC(c1ccccc1Cl)C2.Cl` (stereo not shown) [Compound 93, 6-(2-chlorophenyl)-4-(1-hydroxyguanidin-3-yl)imino-3-methyl-4,5,6,7-tetrahydroindazole hydrochloride], which melting point is on record?
Its melting point is 234 to 235 °C (dec.).

And the inhibition at 0.1 µM (Na—H exchange)?
Its inhibition at 0.1 µM is 69%.

Which results are given for `Cc1n[nH]c2c1C(=NNC(=N)N)CC(c1sccc1Cl)C2.Cl` (stereo not shown) [Compound 119, 6-(3-chloro-2-thienyl)-4-guanidinoimino-3-methyl-4,5,6,7-tetrahydroindazole hydrochloride]?
melting point: 204 °C (dec.); inhibition at 0.1 µM (Na—H exchange): 100%

With `Cc1ccnc2c1C(=NNC(=N)N)CC(c1ccsc1Br)C2.Cl` (stereo not shown) [Compound 123, 7-(2-bromothiophen-3-yl)-5-guanidinoimino-4-methyl-5,6,7,8-tetrahydroquinoline hydrochloride] as the compound, how does the melting point read?
Its melting point is 243 to 245 °C.

What about the inhibition at 0.1 µM (Na—H exchange) of the same compound?
Its inhibition at 0.1 µM is 81%.

With `Cc1n[nH]c2c1C(=NNC(=N)N)CC(c1cc(Cl)sc1Cl)C2.Cl` (stereo not shown) [Compound 127, 6-(2,5-dichlorothiophen-3-yl)-4-guanidinoimino-3-methyl-4,5,6,7-tetrahydroindazole hydrochloride] as the compound, how does the melting point read?
The melting point was no less than 300 °C.

And the inhibition at 0.1 µM (Na—H exchange)?
Its inhibition at 0.1 µM is 98%.

What does the source list for `Cc1n[nH]c2c1C(=NNC(=N)NO)CC(c1cc(Cl)sc1Cl)C2.Cl` (stereo not shown) [Compound 128, 6-(2,5-dichlorothiophen-3-yl)-4-(1-hydroxyguanidin-3-yl)imino-3-methyl-4,5,6,7-tetrahydroindazole hydrochloride]?
melting point: 190 to 192 °C (dec.); inhibition at 0.1 µM (Na—H exchange): 78%

Which melting point does the source give for `Cc1cnnc2c1C(=NNC(=N)N)CC(c1ccccc1Cl)C2.Cl` (stereo not shown) [Compound 129, 7-(2-chlorophenyl)-5-guanidinoimino-4-methyl-5,6,7,8-tetrahydrocinnoline hydrochloride] here?
Its melting point is 241 to 243 °C.

And the inhibition at 0.1 µM (Na—H exchange)?
The inhibition at 0.1 µM was 80%.

Which melting point does the source give for `Cc1cnnc2c1C(=NNC(=N)N)CC(c1cc(Cl)sc1Cl)C2.Cl` (stereo not shown) [Compound 131, 7-(2,5-dichlorothiophen-3-yl)-5-guanidinoimino-4-methyl-5,6,7,8-tetrahydrocinnoline hydrochloride] here?
The melting point was no less than 300 °C.

What about the inhibition at 0.1 µM (Na—H exchange) of the same compound?
The inhibition at 0.1 µM was 88%.

Which melting point does the source give for `CCc1cnnc2c1C(=NNC(=N)N)CC(c1ccccc1Cl)C2.CS(=O)(=O)O` (stereo not shown) [Compound 133, 7-(2-chlorophenyl)-5-guanidinoimino-4-ethyl-5,6,7,8-tetrahydrocinnoline methanesulfonate] here?
Its melting point is 244 to 245 °C (dec.).

What about the inhibition at 0.1 µM (Na—H exchange) of the same compound?
The inhibition at 0.1 µM was 87%.
